The record followed here is patent US10051861B2, “N-arylamidine-substituted trifluoroethyl sulfide derivatives as acaricides and insecticides” (BAYER CROPSCIENCE AG, priority 2011, dated 2018).

In experiment [1] the test system is nematode larvae (Cooperia curticei). Nature of the experiment: Cooperia curticei test (COOPCU). It counts as in vivo. The settings on record: application rate 100 ppm, after 5 days. The procedure:
Solvent: dimethyl sulfoxide
Vessels containing the active compound preparation of the desired concentration are populated with about 40 nematode larvae (Cooperia curticei).
After 5 days, the kill in % is determined.

The test system of experiment [2] is greenhouse red spider mite (Tetranychus urticae). Nature of the experiment: Tetranychus urticae spray test, OP-resistant (TETRUR), bean leaf disks. It counts as in vivo. The following applies: Tetranychus urticae, foliar, 144 h, application rate 500 g/ha, after 6 days; read-out: efficacy (spider mites killed). As to the method:
After 6 days, the effect in % is determined.

As for `CCN/C(=N\c1cc(SCC(F)(F)F)c(Cl)cc1Cl)c1cccnc1` [Ia-220], the “efficacy (kill of larvae)” value in experiment [1] came out at 100%. In experiment [2], the pest or weed control at 500 g/ha came to 90%.
